Assay results: article PMC10408569, “Recruitment of hexahydroquinoline as anticancer scaffold targeting inhibition of wild and mutants EGFR (EGFR^WT, EGFR^T790M, and EGFR^L858R)” (Journal of Enzyme Inhibition and Medicinal Chemistry, 2023)

Assays:
[1] = system: HL-60(TB); assay: NCI-60 anticancer screening (SRB); assay type: cell-based; settings: Homo sapiens, leukemia, one dose 10 μM, read-out: Growth Inhibition Percentage (GI %)
[2] = system: RPMI-8226; assay: NCI-60 anticancer screening (SRB); assay type: cell-based; settings: Homo sapiens; RPMI-8226, leukemia; one dose 10 μM; read-out: Growth Inhibition Percentage (GI %)
[3] = system: A549/ATCC; assay: NCI-60 anticancer screening (SRB); assay type: cell-based; settings: Homo sapiens; A549/ATCC, NSC lung cancer; one dose 10 μM; read-out: Growth Inhibition Percentage (GI %)
[4] = system: EKVX; assay: NCI-60 anticancer screening (SRB); assay type: cell-based; settings: Homo sapiens, NSC lung cancer, one dose 10 μM, read-out: Growth Inhibition Percentage (GI %)
[5] = system: HOP-62; assay: NCI-60 anticancer screening (SRB); assay type: cell-based; settings: Homo sapiens; HOP-62, NSC lung cancer; one dose 10 μM; read-out: Growth Inhibition Percentage (GI %)
[6] = system: NCI-H322M; assay: NCI-60 anticancer screening (SRB); assay type: cell-based; settings: Homo sapiens, NSC lung cancer, one dose 10 μM, read-out: Growth Inhibition Percentage (GI %)
[7] = system: NCI-H460; assay: NCI-60 anticancer screening (SRB); assay type: cell-based; settings: Homo sapiens; NCI-H460, NSC lung cancer; one dose 10 μM; read-out: Growth Inhibition Percentage (GI %)
[8] = system: NCI-H522; assay: NCI-60 anticancer screening (SRB); assay type: cell-based; settings: Homo sapiens; NCI-H522, NSC lung cancer; one dose 10 μM; read-out: Growth Inhibition Percentage (GI %)
[9] = system: HCC-2998; assay: NCI-60 anticancer screening (SRB); assay type: cell-based; settings: Homo sapiens; HCC-2998, colon cancer; one dose 10 μM; read-out: Growth Inhibition Percentage (GI %)
[10] = system: HCT-15; assay: NCI-60 anticancer screening (SRB); assay type: cell-based; settings: Homo sapiens; HCT-15, colon cancer; one dose 10 μM; read-out: Growth Inhibition Percentage (GI %)
[11] = system: HT29; assay: NCI-60 anticancer screening (SRB); assay type: cell-based; settings: Homo sapiens, HT-29; HT29, colon cancer; one dose 10 μM; read-out: Growth Inhibition Percentage (GI %)
[12] = system: KM 12; assay: NCI-60 anticancer screening (SRB); assay type: cell-based; settings: Homo sapiens, KM12; KM 12, colon cancer; one dose 10 μM; read-out: Growth Inhibition Percentage (GI %)
[13] = system: SF-268; assay: NCI-60 anticancer screening (SRB); assay type: cell-based; settings: Homo sapiens; SF-268, CNS cancer; one dose 10 μM; read-out: Growth Inhibition Percentage (GI %)
[14] = system: SF-295; assay: NCI-60 anticancer screening (SRB); assay type: cell-based; settings: Homo sapiens; SF-295, CNS cancer; one dose 10 μM; read-out: Growth Inhibition Percentage (GI %)
[15] = system: SF-539; assay: NCI-60 anticancer screening (SRB); assay type: cell-based; settings: Homo sapiens; SF-539, CNS cancer; one dose 10 μM; read-out: Growth Inhibition Percentage (GI %)
[16] = system: SNB-19; assay: NCI-60 anticancer screening (SRB); assay type: cell-based; settings: Homo sapiens; SNB-19, CNS cancer; one dose 10 μM; read-out: Growth Inhibition Percentage (GI %)
[17] = system: SNB-75; assay: NCI-60 anticancer screening (SRB); assay type: cell-based; settings: Homo sapiens; SNB-75, CNS cancer; one dose 10 μM; read-out: Growth Inhibition Percentage (GI %)
[18] = system: M14; assay: NCI-60 anticancer screening (SRB); assay type: cell-based; settings: Homo sapiens; M14, melanoma; one dose 10 μM; read-out: Growth Inhibition Percentage (GI %)
[19] = system: MDA-MB-435; assay: NCI-60 anticancer screening (SRB); assay type: cell-based; settings: Homo sapiens; MDA-MB-435, melanoma; one dose 10 μM; read-out: Growth Inhibition Percentage (GI %)
[20] = system: SK-MEL-28; assay: NCI-60 anticancer screening (SRB); assay type: cell-based; settings: Homo sapiens; SK-MEL-28, melanoma; one dose 10 μM; read-out: Growth Inhibition Percentage (GI %)
[21] = system: SK-MEL-5; assay: NCI-60 anticancer screening (SRB); assay type: cell-based; settings: Homo sapiens; SK-MEL-5, melanoma; one dose 10 μM; read-out: Growth Inhibition Percentage (GI %)
[22] = system: UACC-62; assay: NCI-60 anticancer screening (SRB); assay type: cell-based; settings: Homo sapiens; UACC-62, melanoma; one dose 10 μM; read-out: Growth Inhibition Percentage (GI %)
[23] = system: NCI/ADR-RES; assay: NCI-60 anticancer screening (SRB); assay type: cell-based; settings: Homo sapiens, ovarian cancer, one dose 10 μM, read-out: Growth Inhibition Percentage (GI %)
[24] = system: 786-0; assay: NCI-60 anticancer screening (SRB); assay type: cell-based; settings: Homo sapiens; 786-0, renal cancer; one dose 10 μM; read-out: Growth Inhibition Percentage (GI %)
[25] = system: CAKI-1; assay: NCI-60 anticancer screening (SRB); assay type: cell-based; settings: Homo sapiens; CAKI-1, renal cancer; one dose 10 μM; read-out: Growth Inhibition Percentage (GI %)
[26] = system: RXF 393; assay: NCI-60 anticancer screening (SRB); assay type: cell-based; settings: Homo sapiens; RXF 393, renal cancer; one dose 10 μM; read-out: Growth Inhibition Percentage (GI %)
[27] = system: SN 12C; assay: NCI-60 anticancer screening (SRB); assay type: cell-based; settings: Homo sapiens, SN12C; SN 12C, renal cancer; one dose 10 μM; read-out: Growth Inhibition Percentage (GI %)
[28] = system: TK-10; assay: NCI-60 anticancer screening (SRB); assay type: cell-based; settings: Homo sapiens; TK-10, renal cancer; one dose 10 μM; read-out: Growth Inhibition Percentage (GI %)
[29] = system: DU-145; assay: NCI-60 anticancer screening (SRB); assay type: cell-based; settings: Homo sapiens; DU-145, prostate cancer; one dose 10 μM; read-out: Growth Inhibition Percentage (GI %)
[30] = system: MDA-MB-231; assay: NCI-60 anticancer screening (SRB); assay type: cell-based; settings: Homo sapiens; MDA-MB-231, breast cancer; one dose 10 μM; read-out: Growth Inhibition Percentage (GI %)
[31] = system: T-47D; assay: NCI-60 anticancer screening (SRB); assay type: cell-based; settings: Homo sapiens, T47D, breast cancer, one dose 10 μM, read-out: Growth Inhibition Percentage (GI %)
[32] = system: NCI 60 cancer cell lines; assay: NCI-60 anticancer screening (SRB), whole panel; assay type: cell-based, human; settings: mean across the NCI-60 panel; one dose 10 μM

| SMILES | inhibition at 10 µM [1] | inhibition at 10 µM [2] | inhibition at 10 µM [3] | inhibition at 10 µM [4] | inhibition at 10 µM [5] | inhibition at 10 µM [6] | inhibition at 10 µM [7] | inhibition at 10 µM [8] | inhibition at 10 µM [9] | inhibition at 10 µM [10] | inhibition at 10 µM [11] | inhibition at 10 µM [12] | inhibition at 10 µM [13] | inhibition at 10 µM [14] | inhibition at 10 µM [15] | inhibition at 10 µM [16] | inhibition at 10 µM [17] | inhibition at 10 µM [18] | inhibition at 10 µM [19] | inhibition at 10 µM [20] | other results |
| --- | --- | --- | --- | --- | --- | --- | --- | --- | --- | --- | --- | --- | --- | --- | --- | --- | --- | --- | --- | --- | --- |
| CCOC(=O)C1=C(N)N(c2ccc(Cl)cc2)C2=C(C(=O)CC(C)(C)C2)C1c1ccc([N+](=O)[O-])cc1 (racemic) [8k, (±)-Ethyl2-amino-1–(4-chlorophenyl)-7,7-dimethyl-4–(4-nitrophenyl)-5-oxo-1,4,5,6,7,8-hexahydroquinoline-3-carboxylate] | 22% | 43% | 11% | 15% | < 10% | < 10% | < 10% | 27% | < 10% | 18% | < 10% | 12% | < 10% | < 10% | < 10% | < 10% | < 10% | < 10% | < 10% | < 10% | inhibition at 10 µM [21]: < 10%; inhibition at 10 µM [22]: 29%; inhibition at 10 µM [23]: 16%; inhibition at 10 µM [24]: < 10%; inhibition at 10 µM [25]: 11%; inhibition at 10 µM [26]: < 10%; inhibition at 10 µM [27]: < 10%; inhibition at 10 µM [28]: < 10%; inhibition at 10 µM [29]: < 10%; inhibition at 10 µM [30]: < 10%; inhibition at 10 µM [31]: 27%; GI % mean [32]: - ((-) = GI % mean less than 10) |
| CCOC(=O)C1=C(N)N(c2ccc(Cl)cc2)C2=C(C(=O)CC(C)(C)C2)C1c1ccccc1OC (racemic) [6i, (±)-Ethyl 2-amino-1–(4-chlorophenyl)-4–(2-methoxyphenyl)-7,7-dimethyl-5-oxo-1,4,5,6,7,8-hexahydroquinoline-3-carboxylate] | 69% | 73% | 52% | 44% | < 10% | 15% | 51% | 43% | 38% | 59% | 44% | 54% | 27% | 41% | 31% | 28% | 18% | 49% | 51% | 36% | inhibition at 10 µM [21]: 29%; inhibition at 10 µM [22]: 44%; inhibition at 10 µM [23]: 40%; inhibition at 10 µM [24]: < 10%; inhibition at 10 µM [25]: 12%; inhibition at 10 µM [26]: < 10%; inhibition at 10 µM [27]: 12%; inhibition at 10 µM [28]: < 10%; inhibition at 10 µM [29]: < 10%; inhibition at 10 µM [30]: 31%; inhibition at 10 µM [31]: 40%; GI % mean [32]: 36% |
| CCOC(=O)C1=C(N)N(c2ccc(Cl)cc2)C2=C(C(=O)CC(C)(C)C2)C1c1ccccc1Br (racemic) [6f, (±)-Ethyl 2-amino-4–(2-bromophenyl)-1–(4-chlorophenyl)-7,7-dimethyl-5-oxo-1,4,5,6,7,8-hexahydroquinoline-3-carboxylate] | 68% | < 10% | 31% | 25% | < 10% | < 10% | 43% | 43% | < 10% | 53% | 44% | 40% | 17% | 18% | < 10% | 11% | 16% | 24% | < 10% | < 10% | inhibition at 10 µM [21]: 79%; inhibition at 10 µM [22]: 36%; inhibition at 10 µM [23]: 14%; inhibition at 10 µM [24]: 12%; inhibition at 10 µM [25]: 32%; inhibition at 10 µM [26]: < 10%; inhibition at 10 µM [27]: 13%; inhibition at 10 µM [28]: 22%; inhibition at 10 µM [29]: < 10%; inhibition at 10 µM [30]: 15%; inhibition at 10 µM [31]: 49%; GI % mean [32]: 24% |
| CCOC(=O)C1=C(N)N(c2ccccc2)C2=C(C(=O)CC(C)(C)C2)C1c1cccc(Cl)c1Cl (racemic) [10a, (±)-Ethyl 2-amino-4–(2,3-dichlorophenyl)-7,7-dimethyl-5-oxo-1-phenyl-1,4,5,6,7,8-hexahydroquinoline-3-carboxylate] | 54% | 49% | 39% | 42% | 59% | 22% | 39% | 25% | 13% | 34% | 27% | 23% | 34% | 46% | 67% | 58% | 43% | 12% | 13% | < 10% | inhibition at 10 µM [21]: 22%; inhibition at 10 µM [22]: 44%; inhibition at 10 µM [23]: 49%; inhibition at 10 µM [24]: 42%; inhibition at 10 µM [25]: 53%; inhibition at 10 µM [26]: 47%; inhibition at 10 µM [27]: 37%; inhibition at 10 µM [28]: < 10%; inhibition at 10 µM [29]: 19%; inhibition at 10 µM [30]: 40%; inhibition at 10 µM [31]: 28%; GI % mean [32]: 35% |
